# Test results as given in patent publication US20160067221A1, “USE OF ERGOTHIONEINE FOR INDUCING ACTIVITY OF NRF2 IN CELL” (China Medical University, priority 2014, published 2016).
# What was measured:
# Type in all cases: cell-based, human
# [1] = test system: UVA-irradiated HaCaT cells; assay: Intracellular ROS generation (HDCF-DA / DCF fluorescence)
# Protocol: An exposure of the UVA will stimulate cells generating ROS. […] The HDCF-DA is a lipid-soluble fluorescent dye and has a cell membrane permeability. The HDCF-DA will bind to intracellular esterases to form a non-fluorescent 2′,7′-dichlorofluorescin (DCFH). The DCFH is subsequently oxidated by H2O2 to form a fluorescent 2′,7′-dichlorofluorescein (DCF), and then accumulated in a mitochondria. […] The HaCaT cells are subsequently incubated with or without the ergothioneine, and then maintained at 37° C. in a humidified atmosphere of 5% CO2 for 24 hours, wherein the concentration of the ergothioneine is 500 nM. Next, the HaCaT cells are washed with PBS three times, and then irradiated with the UVA (15 J/cm^2). After the UVA irradiation, the PBS is replaced with 1 mL of HDCF-DA (10 μM) in each well to react at 37° C. in the dark for 30 minutes. After the reaction, the fluorescent dye is removed, and the HaCaT cells are washed with PBS thrice to remove the remaining fluorescent dye. The intracellular ROS, as indicated by DCF fluorescence, is measured with the fluorescence microscope and photographed.
# [2] = test system: UVA-irradiated HaCaT cells; assay: LDH release (UVA-induced cell membrane damage); conditions: 125, 250, 500 nM 24 hours, then 15 J/cm^2 UVA, 4 hours
# Protocol: Under normal physiological condition, a lactate dehydrogenase (LDH) is presented in the cytoplasm. The cell membranes are damaged or disrupted when the cells are attacked by excessive ROS. Accordingly, the intracellular LDH releases into the culture medium. Therefore, a detection amount of LDH release is an indicator of a cell membrane damaged condition. The HaCaT cells are seeded in a 12-well plate with 1×10^5 cells/well and then maintained at 37° C. in the humidified atmosphere of 5% CO2 until the HaCaT cells are adhered in the next day. […] After incubation, the HaCaT cells are washed with PBS three times and resuspended in fresh phenol red-free DMEM supplemented with 10% FBS. Then, the HaCaT cells are exposed to the UVA (15 J/cm^2) for 4 hours. The culture medium is taken from the well, and then centrifuged at 400×g for 5 minutes by using a high speed centrifuge. After the centrifugation, 50 μL of the supernatant is taken and added into the 96-well microplate, and the 50 μL of a substrate mixture is added in each well to act at room temperature for 20 minutes in the dark. Then, 50 μl. of a stopping solution (1N HCl) is added in each well to stop the reaction, and then the absorbance at 490 nm is measured.
# Nrf2 = Nrf2 nuclear translocation (Western blot of cytosolic and nuclear Nrf2, immunofluorescence staining); conditions: for nuclear Nrf2 protein expression / cytosolic Nrf2 protein expression: Western blot
# Protocol: This example next investigates the effect of the ergothioneine on the Nrf2 nuclear translocation. The HaCat cells are pretreated with the ergothioneine for 24 hours, and then exposed to 15 J/cm^2 UVA for 1 hour. The protein expressions of a cytosolic Nrf2 and a nuclear Nrf2 are detected by the Western blot analysis, and a nuclear import of Nrf2 of the HaCaT cell is monitored by an immunofluorescence staining.
# FIG. 9 illustrates the effect of the ergothioneine on the protein expressions of the cytosolic Nrf2 and the nuclear Nrf2 of the UVA-irradiated HaCaT cells. FIG. 9-(A) represents the Western blot analysis result. FIG. 9-(B) is the fluorescent photomicrograph of the immunofluorescence staining (200× magnifications). […] In FIG. 9-(B), the nucleus is labelled with 4′,6-diamidino-2-phenylindole (DAPI), and the Nrf2 is labelled with green fluorescence to measure the expression and a localization of the Nrf2.
# [3] = test system: Nrf2 knockdown HaCaT cells; assay: ROS generation in siRNA-transfected HaCaT cells; conditions: 500 nM 24 hours
# Protocol: The siRNA transfection includes steps as follows. The HaCaT cells are seeded in a 6-well plate with 4×10^5 cells/well and then maintained at 37° C. in the humidified atmosphere of 5% CO2 untill the time of the transfection. The day after reaching 40-60% confluence, the culture medium is replaced with 1 mL of FBS-free and antibiotic-free culture medium in each well, and the HaCaT cells are transfected with a siNrf2 or a control siRNA by using Lipofectamine 2000 (Invitrogen, U.S.A.) for 4-6 hours. After the incubation for 4-6 hours, the HaCaT cells are washed with the culture medium supplemented with 10% FBS 2-3 times, and then cultured in the culture medium supplemented with 10% FBS for 12-16 hours.
# We further measure the amount of ROS generation in the HaCaT cells treated with the ergothioneine prior to 15 J/cm^2 UVA irradiation. The HaCaT cells are incubated with 500 nM ergothioneine for 24 hours after the siRNA transfection. After the incubation, the HaCaT cells are treated with or without the UVA irradiation (15 J/cm^2) for 4 hours, and then the HaCaT cells are subjected to detect the ROS generation.
# [4] = ergothioneine alone, vs control
smiles,measurement,setting,value
"C[N+](C)(C)[C@@H](Cc1c[nH]c(=S)[nH]1)C(=O)[O-] [ergothioneine, 2-mercapto histidine trimethylbetain]",DCF fluorescence (UVA-induced ROS generation),[1]; 500 nM 24 hours prior to 15 J/cm^2 UVA,ignificantly decreased
same,ROS generation,"[1]; 500 nM alone, no UVA",non-effect
same,LDH release,[2],inhibits the LDH release in a dose-dependent manner
same,nuclear Nrf2 protein expression,"Nrf2; ergothioneine 24 hours prior to 15 J/cm^2 UVA, 1 hour",significantly increased
same,fluorescence intensity of the Nrf2,"Nrf2; ergothioneine alone, immunofluorescence staining",slightly increased
same,cytosolic Nrf2 protein expression,Nrf2; [4],significantly decreased
same,nuclear Nrf2 protein expression,Nrf2; [4],slightly increased
same,fluorescence intensity of the nuclear Nrf2,"Nrf2; ergothioneine prior to UVA irradiation, immunofluorescence staining",pronounced fluorescence intensity of the nuclear Nrf2
same,cytosolic Nrf2 protein expression,"Nrf2; ergothioneine prior to UVA irradiation, vs control",significantly decreased
same,ROS generation,"[3]; Nrf2 siRNA, UVA 15 J/cm^2",unable to decrease the ROS generation
same,ROS generation,"[3]; control siRNA, UVA 15 J/cm^2, vs UVA alone",significantly reduced
